# Results from patent US20260001844A1, “COMPOUNDS AND METHODS FOR THE TREATMENT AND PREVENTION OF HIV” (priority 2022, published 2026).
# Like-named read-outs stand apart in the source and are kept apart here.
# What was measured:
# HIV-1JRFL = test: Viral neutralization in TZM-bl cells (luciferase), HIV-1JRFL; format: cell-based
# HIV-1AD8 = test: Viral neutralization in TZM-bl cells (luciferase), HIV-1AD8; format: cell-based; conditions: read-out: IC50 HIV-1AD8
# VSV-G pseudovirus = test: microbe, parasite or virus in culture; format: cell-based; conditions: read-out: IC50 VSV-G pseudovirus
# [1] = tested on: HIV-1CH58TF infected primary CD4+ T cells; test: ADCC FACS-based assay with HIV+ plasma, HIV-1CH58TF infected cells; format: cell-based, human; conditions: for Susceptibility of HIV-1CH58TF infected cells to ADCC mediated by HIV+ plasma (in words): 50 μM compound, plasma 1:1000; for % ADCC (CH58): Table 1, approximate values, HIV+ plasma 1/1,000, compound 50 μM
# [2] = tested on: HIV-1CH58TF infected primary CD4+ T cells; test: Anti-CoRBS 17b mAb binding to infected cells (flow cytometry), HIV-1CH58TF; format: cell-based, human; conditions: 50 μM compound; p24+ cells
# Procedure: (§1) FIG. 4. Anti-CoRBS Ab binding. Anti-CoRBS Ab-17b binding to (A) HIV-1CH58TF, (B) HIV-1JRFL (C) or HIV-1AD8 infected primary CD4+ T cells was done in the presence of 50 μM of the indicated CD4mcs or the same volume of vehicle (DMSO). The median fluorescence intensity (MFI) of 17b binding is reported for the productively-infected cell (p24+) population. Data shown are the mean±SD of at least three independent experiments. Statistical significance was evaluated using an un-paired t test (*, p<0.05; **, p<0.01; ***, p<0.001; ****, p<0.0001; ns, not significant).
# The ability of the compounds to expose the co-receptor binding site (CoRBS) were tested by measuring binding of the anti-CoRBS 17b mAb to infected cells. […] Two days later, infected cells were co-incubated with 50 μM (+)-BNM-III-170, (S)-MCG-IV-210, TFH-070-A6, TFH-I-116-D1, ZXC-I-090, ZXC-I-092, DL-I-101 (ZXC-I-257), and DL-I-102 (ZXC-I-258) or the same volume of DMSO, and the 17b interaction was measured by flow cytometry after intracellular anti-p24 to identify the infected cell population. […]
# Cell-surface staining was performed. […] The percentage of infected cells (p24+ cells) was determined by gating the live cell population on the basis of the Aqua-Vivid viability dye staining. Samples were analyzed on an LSRII cytometer (BD Biosciences), and data analysis was performed using FlowJo vX.0.7 (Tree Star, Ashland, OR, USA).
# [3] = tested on: HIV-1CH58TF infected primary CD4+ T cells; test: Cell-surface staining with HIV+ plasma, HIV-1CH58TF infected cells; format: cell-based, human; conditions: 50 μM compound; plasma 1:1000
# [4] = tested on: HIV-1AD8 infected primary CD4+ T cells; test: Cell-surface staining with HIV+ plasma, HIV-1AD8 infected cells; conditions: 50 μM compound; plasma 1:1000
# HIV-1CH58TF = test: Viral neutralization in TZM-bl cells (luciferase), HIV-1CH58TF; format: cell-based
# [5] = tested on: HIV-1JRFL infected primary CD4+ T cells; test: ADCC FACS-based assay with HIV+ plasma, HIV-1JRFL infected cells; format: cell-based, human; conditions: for % ADCC (JR-FL): Table 1, approximate values
# [6] = tested on: HIV-1JRFL infected primary CD4+ T cells; test: Anti-CoRBS 17b mAb binding to infected cells (flow cytometry), HIV-1JRFL; format: cell-based, human; conditions: 50 μM compound; p24+ cells
# Procedure: as §1
# The ability of the compounds to expose the co-receptor binding site (CoRBS) were tested by measuring binding of the anti-CoRBS 17b mAb to infected cells. Briefly, primary CD4+ T cells were infected with HIV-1CH58TF, HIV-1JRFL or HIV-1AD8. Two days later, infected cells were co-incubated with 50 μM (+)-BNM-III-170, (S)-MCG-IV-210, TFH-070-A6, TFH-I-116-D1, ZXC-I-090, ZXC-I-092, DL-I-101 (ZXC-I-257), and DL-I-102 (ZXC-I-258) or the same volume of DMSO, and the 17b interaction was measured by flow cytometry after intracellular anti-p24 to identify the infected cell population. […] Defined by the sensitivity to anti-body-mediated neutralization (tier-1, 2 and 3), Tier-2 viruses (HIV-1JRFL and HIV-1AD8) are representative of biologically relevant circulating HIV-1 strains which are moderately neutralized by neutralizing antibodies. Weak neutralizing antibodies, or first generation CD4mc, prevent the infection of viruses from tier-1 but not those from tier-2 or tier-3. […] A similar phenotype was observed when using HIV-1AD8 infected cells (FIG. 4C).
# The anti-CoRBS 17b mAb was used alone or in combination with different com-pounds for cell-surface staining. Plasma from different HIV-infected donors were collected, heat-inactivated and conserved. Alexa Fluor 647 conjugated Goat anti-human antibodies (Invitrogen, Waltham, MA, USA) were used as secondary Abs.
# Cell-surface staining was performed. Primary CD4 T cells were isolated from healthy donors and infected with HIV-1CH58TF, HIV-1JRFL or HIV-1AD8. Binding of HIV-1-infected cells by plasma (1:1000 dilution) or 17b mAb (5 μg/mL) in the presence or absence of 50 μM compounds was performed 48 h after infection. Cells were then incubated at 37° C. for 1 h followed by adding anti-human Alexa Fluor-647 (Invitrogen) secondary Abs for 20 min. Cells were then stained intracellularly for HIV-1 p24, using the Cytofix/Cytoperm Fixation/Permeabilization Kit (BD Biosciences, Mississauga, ON, Canada) and the fluorescent anti-p24 mAb (PE-conjugated anti-p24, clone KC57; Beckman Coulter/Immunotech). The percentage of infected cells (p24+ cells) was determined by gating the live cell population on the basis of the Aqua-Vivid viability dye staining. Samples were analyzed on an LSRII cytometer (BD Biosciences), and data analysis was performed using FlowJo vX.0.7 (Tree Star, Ashland, OR, USA).
# [7] = tested on: HIV-1AD8 infected primary CD4+ T cells; test: ADCC FACS-based assay with HIV+ plasma, HIV-1AD8 infected cells; format: cell-based, human; conditions: 50 μM compound; plasma 1:1000
# [8] = tested on: HIV-1JRFL infected primary CD4+ T cells; test: Cell-surface staining with HIV+ plasma, HIV-1JRFL infected cells; format: cell-based, human; conditions: 50 μM compound; plasma 1:1000
# [9] = Human immunodeficiency virus 1, TZM-bl, read-out: IC50 HIV-1JRFL
# [10] = Human immunodeficiency virus 1, TZM-bl
# [11] = Table 2, average ± SD of at least three independent experiments, TZM-bl cells, read-out: IC50 HIV-1CH58TF
# [12] = Human immunodeficiency virus 1, TZM-bl, read-out: IC50 (CH58)
# [13] = Human immunodeficiency virus 1, TZM-bl, read-out: IC50 (JR-FL)
smiles,measurement,setting,value
"NCCNC(=O)N1CCC[C@H](C(=O)Nc2ccc(Cl)c(F)c2)C1 [MCG-IV-210, reference compound]",IC50,HIV-1JRFL; [9],> 100 µM
same,Inhibition of viral infection by HIV-1JRFL (in words),HIV-1JRFL; TZM-bl neutralization assay,unable to inhibit viral infection
same,IC50,HIV-1AD8; [10],> 100 µM
same,IC50,"VSV-G pseudovirus; Pseudovirus, TZM-bl",> 100 µM
same,Susceptibility of HIV-1CH58TF infected cells to ADCC mediated by HIV+ plasma (in words),[1],enhanced
same,"Exposure of the co-receptor binding site (17b mAb binding), HIV-1CH58 infected cells",[2],exposed the CoRBS
same,Recognition of HIV-1CH58TF infected cells by HIV+ plasma,[3],enhanced the recognition
same,HIV+ plasma binding to HIV-1AD8 infected cells,[4],did not promote HIV+ plasma binding
"CNCc1ccc2c(c1)C[C@H](CN=C(N)N)[C@H]2NC(=O)C(=O)Nc1ccc(Cl)c(F)c1.O=C(O)C(F)(F)F.O=C(O)C(F)(F)F [BNM-III-170, reference compound]",IC50,HIV-1CH58TF; [11],0.033 ± 0.01 µM
same,IC50,"HIV-1JRFL; TZM-bl neutralization assay, read-out: IC50, neutralization of HIV-1JRFL",13.5 µM
same,IC50,"HIV-1AD8; Table 2, average ± SD of at least three independent experiments, TZM-bl cells",3.75 ± 1.3 µM
same,IC50,VSV-G pseudovirus,> 100 µM
same,Susceptibility of HIV-1CH58TF infected cells to ADCC mediated by HIV+ plasma (in words),[1],enhanced
same,Recognition of HIV-1CH58TF infected cells by HIV+ plasma,[3],enhanced the recognition
"CN1CCN(C(=O)N2CCC[C@H](C(=O)Nc3ccc(Cl)c(F)c3)C2)CC1 [TFH-I-070-A6, (S)-4-(3-((4-chloro-3-fluorophenyl)carbamoyl)piperidine-1-carbonyl)-1-methylpiperazin-1-ium, 2,2,2-trifluoro-acetate]",IC50,HIV-1CH58TF; [12],30 µM
same,IC50,HIV-1JRFL; [13],80 µM
same,IC50,HIV-1JRFL; [9],67.2 ± 30 µM
same,IC50,"VSV-G pseudovirus; Pseudovirus, TZM-bl",> 100 µM
same,Susceptibility of HIV-1CH58TF infected cells to ADCC mediated by HIV+ plasma (in words),[1],also the case
same,% ADCC (CH58),[1],5%
same,% ADCC (JR-FL),[5],3%
same,"Exposure of the co-receptor binding site (17b mAb binding), HIV-1JRFL infected cells",[6],successfully exposed the CoRBS
same,HIV+ plasma binding to HIV-1AD8 infected cells,[4],did
"O=C(O)CN1CCN(C(=O)N2C[C@H](CO)C[C@H](C(=O)Nc3ccc(Cl)c(F)c3)C2)CC1 (racemic) [DL-I-102, 2-(4-((3S,5R)-3-((4-chloro-3-fluorophenyl)carbamoyl)-5-(hydroxymethyl)piperidine-1-carbonyl)piperazin-1-yl)acetic acid]",IC50,"VSV-G pseudovirus; Pseudovirus, TZM-bl",> 100 µM
same,Susceptibility of HIV-1CH58TF infected cells to ADCC mediated by HIV+ plasma (in words),[1],also the case
same,"Exposure of the co-receptor binding site (17b mAb binding), HIV-1JRFL infected cells",[6],successfully exposed the CoRBS
"NCC(=O)N1CCN(C(=O)N2C[C@H](CO)C[C@H](C(=O)Nc3ccc(Cl)c(F)c3)C2)CC1 (racemic) [DL-I-101, (3S,5R)-N-(4-chloro-3-fluorophenyl)-1-(4-glycylpiperazine-1-carbonyl)-5-(hydroxymethyl)piperidine-3-carboxamide]",IC50,"VSV-G pseudovirus; Pseudovirus, TZM-bl",> 100 µM
same,Susceptibility of HIV-1CH58TF infected cells to ADCC mediated by HIV+ plasma (in words),[1],also the case
same,ADCC against HIV-1AD8 infected cells (in words),[7],translated into ADCC
same,"Exposure of the co-receptor binding site (17b mAb binding), HIV-1JRFL infected cells",[6],successfully exposed the CoRBS
same,HIV+ plasma binding to HIV-1AD8 infected cells,[4],did
C[C@@H]1CN(C(=O)N2C[C@H](CN)C[C@H](C(=O)Nc3ccc(Cl)c(F)c3)C2)C[C@H](C)N1C (stereo in doubt) [ZXC-I-092],IC50,HIV-1CH58TF; [12],~50 µM
same,IC50,HIV-1CH58TF; [11],0.75 ± 0.12 µM
same,IC50,HIV-1JRFL; [13],28 µM
same,IC50,HIV-1JRFL; [9],54.2 ± 22.8 µM
same,IC50,"VSV-G pseudovirus; Pseudovirus, TZM-bl",> 100 µM
same,Susceptibility of HIV-1CH58TF infected cells to ADCC mediated by HIV+ plasma (in words),[1],also the case
same,% ADCC (CH58),[1],~3%
same,% ADCC (JR-FL),[5],~2%
same,"Exposure of the co-receptor binding site (17b mAb binding), HIV-1JRFL infected cells",[6],successfully exposed the CoRBS
CN1CCN(C(=O)N2C[C@H](CN)C[C@H](C(=O)Nc3ccc(Cl)c(F)c3)C2)CC1 (stereo in doubt) [ZXC-I-090],IC50,HIV-1CH58TF; [12],~50 µM
same,IC50,HIV-1JRFL; [13],18 µM
same,IC50,"VSV-G pseudovirus; Pseudovirus, TZM-bl",> 100 µM
same,Susceptibility of HIV-1CH58TF infected cells to ADCC mediated by HIV+ plasma (in words),[1],also the case
same,% ADCC (CH58),[1],~3%
same,% ADCC (JR-FL),[5],~2%
C[C@@H]1CN(C(=O)N2CCC[C@H](C(=O)Nc3ccc(Cl)c(F)c3)C2)C[C@H](C)N1C (stereo in doubt) [TFH-I-116-D1],IC50,HIV-1CH58TF; [12],< 1 µM
same,IC50,"HIV-1CH58TF; Human immunodeficiency virus 1, TZM-bl, read-out: IC50 HIV-1CH58TF",0.065 ± 0.01 µM
same,IC50,HIV-1JRFL; [13],20 µM
same,IC50,"HIV-1JRFL; Human immunodeficiency virus 1, TZM-bl, read-out: IC50, neutralization of HIV-1JRFL (text, unit printed M)",43.8 µM
same,IC50,HIV-1AD8; [10],4.8 ± 1.7 µM
same,IC50,"VSV-G pseudovirus; Pseudovirus, TZM-bl",> 100 µM
same,Susceptibility of HIV-1CH58TF infected cells to ADCC mediated by HIV+ plasma (in words),[1],also the case
same,% ADCC (CH58),[1],5%
same,ADCC against HIV-1JRFL infected cells compared to (S)-MCG-IV-210 (in words),"[5]; 50 μM compound, plasma 1:1000",not translated into enhanced ADCC
same,% ADCC (JR-FL),[5],3%
same,ADCC against HIV-1AD8 infected cells (in words),[7],translated into ADCC
same,"Exposure of the co-receptor binding site (17b mAb binding), HIV-1JRFL infected cells",[6],successfully exposed the CoRBS
same,Recognition of HIV-1JRFL infected cells by antibodies from PLWH (HIV+ plasma),[8],recognized infected cells
same,HIV+ plasma binding to HIV-1AD8 infected cells,[4],did
